Assay results from patent publication US12624004B2 (Fudan University, priority 2019, dated 2026).
Structures can show the parent of a compound that is named as a salt. Where two headings read alike, the source gives them in different places.

Key:
δ opioid receptor = molecular target: T1, δ opioid receptor (Homo sapiens, UniProt P41143); test: Competition binding assay on membranes of CHO cells expressing δ opioid receptor, [3H]-labeled ligand; settings: for Ki: read-out: δOR Ki
T1 construct: expressed in transfected cells; host or cells: CHO cells (membranes)
In short: (§1)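 CHO membranes (20–30 μg protein) incubated with [3H]-labeled ligand at 1–2 nM and test compounds, 30 min at 30° C; nonspecific binding with 1 μM corresponding ligand. Filtered on GF/C, washed with 50 mM Tris-HCl pH 7.4, scintillation-counted. IC50 converted to Ki by Ki=IC50/(1+[L]/Kd).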

μ opioid receptor = molecular target: T2, μ opioid receptor (Homo sapiens, UniProt P35372); test: Competition binding assay on membranes of CHO cells expressing μ opioid receptor, [3H]-labeled ligand; settings: for Ki: read-out: μOR Ki
T2 construct: expressed in transfected cells; host or cells: CHO cells (membranes)
In short: as §1

κ opioid receptor = molecular target: T3, κ opioid receptor (Homo sapiens, UniProt P41145); test: Competition binding assay on membranes of CHO cells expressing κ opioid receptor, [3H]-labeled ligand; settings: for Ki: read-out: κOR Ki
T3 construct: expressed in transfected cells; host or cells: CHO cells (membranes)
In short: as §1

Female mice = test: In vivo hot plate method analgesia test; settings: intraperitoneal; for % MPE @ 10 mg/kg: Table 3-2, hot plate 55° C.; for % MPE (5 mg/kg): Table 2-2, hot plate 55° C.; for Maximum percentage effective analgesia (% MPE): Table 5-2, hot plate 55° C.
In short: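 Female mice (~20 g) on a 55° C hot plate, hindpaw response latency as pain threshold (pre-screen 5–30 s, 60 s cut-off). Latencies at 15, 30, 60 and 120 min after intraperitoneal dosing. %MPE = (post−pre latency)/(60−pre)×100, ED50 derived from %MPE.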

[1] = 0.5 h, Table 3-1, 1 μM concentration of compounds, read-out: δOR Binding rate (%)
[2] = Table 3-1, 1 μM concentration of compounds, read-out: μOR Binding rate (%)
[3] = 0.5 h, Table 3-1, 1 μM concentration of compounds, read-out: κOR Binding rate (%)
[4] = 0.5 h, Table 2-1, 1 μM concentration of compound, read-out: δOR Binding rate (%)
[5] = 0.5 h, Table 2-1, 1 μM concentration of compound, read-out: κOR Binding rate (%)
[6] = 0.5 h, Table 5-1, 1 μM concentration of compound, read-out: δOR Combination rate (%)

## COc1cccc([C@@]2(O)CCN(S(=O)(=O)Cc3ccccc3)C[C@@H]2CN(C)C)c1.Cl [(3S,4R)-1-(Benzylsulfonyl)-3-((dimethylamino)methyl)-4-(3-methoxyphenyl)piperidin-4-ol hydrochloride]
δ opioid receptor; Table 4-1 footnote a, 0.1 μM, read-out: δOR Inhibition rate
  inhibition at 0.1 µM: 7.3 ± 4.5%
μ opioid receptor; Table 4-1 footnote a, 0.1 μM, read-out: μOR Inhibition rate
  inhibition at 0.1 µM: 24.5 ± 0.64%
κ opioid receptor; Table 4-1 footnote a, 0.1 μM, read-out: κOR Inhibition rate
  inhibition at 0.1 µM: 20.75 ± 0.13%
Female mice; Table 4-2, hot plate 55° C., 10 mg/kg dose
  % MPE: 13.4%

## COc1cccc(C2(O)CCC(CS(=O)(=O)c3ccccc3)CC2CN(C)C)c1.Cl (stereo not drawn) [2-((Dimethylamino)methyl)-1-(3-methoxyphenyl)-4-((phenylsulfonyl)methyl)cyclohexane-1-ol hydrochloride]
δ opioid receptor; 0.5 h, Table 1-1, 10 μM concentration of compound, read-out: δOR Binding rate (%)
  inhibition at 10 µM: 9.3%
μ opioid receptor; Table 1-1, 10 μM concentration of compound, mean ± SD of three measurements, read-out: μOR Binding rate (%)
  inhibition at 10 µM: 86.9 ± 2%
κ opioid receptor; 0.5 h, Table 1-1, 10 μM concentration of compound, read-out: κOR Binding rate (%)
  inhibition at 10 µM: 34.6 ± 5.1%
Female mice; Table 1-2, hot plate 55° C., 5 mg/kg dose
  Maximum percentage effective analgesic (% MPE): 22.4%

## COc1cccc(C2(O)CCN(C(=O)NCc3ccccc3)CC2CN(C)C)c1 (stereo not drawn) [FWBF12, N-Benzyl-3-((dimethylamino)methyl)-4-hydroxy-4-(3-methoxyphenyl)piperidine-1-carboxamide hydrochloride]
δ opioid receptor; [1]
  inhibition at 1 µM: 2.6 ± 2.9%
μ opioid receptor; [2]
  inhibition at 1 µM: 35.1 ± 4.4%
κ opioid receptor; [3]
  inhibition at 1 µM: 5.1 ± 4%
Female mice; 10 mg/kg dose
  % MPE @ 10 mg/kg: 15.07%

## COc1cccc(C2(O)CCN(S(=O)(=O)Cc3ccc(Cl)cc3)CC2CN(C)C)c1.Cl (stereo not drawn) [FWBH11, 1-((4-Chlorobenzyl)sulfonyl)-3-((dimethylamino)methyl)-4-(3-methoxyphenyl)piperidin-4-ol hydrochloride]
δ opioid receptor; [4]
  inhibition at 1 µM: 50.9 ± 1.58%
μ opioid receptor; Table 2-1
  Ki: 0.7117 ± 0.00365 µM
κ opioid receptor; [5]
  inhibition at 1 µM: 36.6 ± 3.32%
Female mice; 5 mg/kg dose
  % MPE (5 mg/kg): 55.49%

## COc1cccc(C2(O)CCN(C(=O)Cc3cc(C(F)(F)F)cc(C(F)(F)F)c3)CC2CN(C)C)c1.Cl (stereo not drawn) [FWBE1, 2-(3,5-Bis(trifluoromethyl)phenyl)-1-(3-((dimethylamino)methyl)-4-hydroxy-4-(3-methoxyphenyl)piperidin-1-yl)ethyl-1-one hydrochloride]
δ opioid receptor; Table 5-1
  Ki: 4.39 ± 0.351 µM
μ opioid receptor; Table 5-1
  Ki: 0.0253 ± 0.0049 µM
κ opioid receptor; Table 5-1
  Ki: 4.42 ± 0.181 µM
Female mice; 10 mg/kg dose
  Maximum percentage effective analgesia (% MPE): 17.8%

## COc1cccc(C2(O)CCN(C(=O)Nc3ccc(Cl)c(Cl)c3)CC2CN(C)C)c1.Cl (stereo not drawn) [FWBF5, N-(3,4-dichlorophenyl)-3-((dimethylamino)methyl)-4-hydroxy-4-(3-methoxyphenyl)piperidine-1-carboxamide hydrochloride]
δ opioid receptor; [1]
  inhibition at 1 µM: 0%
μ opioid receptor; [2]
  inhibition at 1 µM: 46 ± 5.4%
κ opioid receptor; [3]
  inhibition at 1 µM: 18.2 ± 1.9%
Female mice; 10 mg/kg dose
  % MPE @ 10 mg/kg: 25.42%

## COc1cccc(C2(O)CCN(C(=O)Nc3cccc(Cl)c3)CC2CN(C)C)c1.Cl (stereo not drawn) [FWBF2, N-(3-Chlorophenyl)-3-((dimethylamino)methyl)-4-hydroxy-4-(3-methoxyphenyl)piperidine-1-carboxamide hydrochloride]
δ opioid receptor; Table 3-1
  Ki: 0.537 ± 0.0693 µM
μ opioid receptor; Table 3-1
  Ki: 0.0141 ± 0.0027 µM
κ opioid receptor; Table 3-1
  Ki: 0.719 ± 0.197 µM
Female mice; 10 mg/kg dose
  % MPE @ 10 mg/kg: 21.27%

## COc1cccc(C2(O)CCN(C(=O)Cn3ccc4ccccc43)CC2CN(C)C)c1.Cl (stereo not drawn) [FWBE14, 1-(3-((Dimethylamino)methyl)-4-hydroxy-4-(3-methoxyphenyl)piperidin-1-yl)-2-(1H-indol-1-yl)ethyl-1-one hydrochloride]
δ opioid receptor; Table 5-1
  Ki: 1.18 ± 0.22 µM
μ opioid receptor; Table 5-1
  Ki: 0.0729 ± 0.0001 µM
κ opioid receptor; Table 5-1
  Ki: 4.05 ± 0.382 µM
Female mice; 10 mg/kg dose
  Maximum percentage effective analgesia (% MPE): 54.23%

## COc1cccc(C2(O)CCN(S(=O)(=O)Cc3ccc(C)cc3)CC2CN(C)C)c1.Cl (stereo not drawn) [FWBH8, 3-((Dimethylamino)methyl)-4-(3-methoxyphenyl)-1-((4-methylbenzyl)sulfonyl)piperidin-4-ol hydrochloride]
δ opioid receptor; [4]
  inhibition at 1 µM: 11.9 ± 1.31%
μ opioid receptor; Table 2-1
  Ki: 0.247 ± 0.0494 µM
κ opioid receptor; [5]
  inhibition at 1 µM: 29 ± 0.32%
Female mice; 5 mg/kg dose
  % MPE (5 mg/kg): 17.36%

## COc1cccc(C2(O)CCN(C(=O)C3(c4ccccc4)CCCCC3)CC2CN(C)C)c1.Cl (stereo not drawn) [FWBE27, (3-((Dimethylamino)methyl)-4-hydroxy-4-(3-methoxyphenyl)piperidin-1-yl)(1-phenylcyclohexyl) methanone hydrochloride]
δ opioid receptor; [6]
  inhibition at 1 µM: 93.6 ± 1.08%
μ opioid receptor; Table 5-1
  Ki: 0.0516 ± 0.00224 µM
κ opioid receptor; Table 5-1
  Ki: 0.0307 ± 0.00096 µM
Female mice; 10 mg/kg dose
  Maximum percentage effective analgesia (% MPE): 61.21%

## COc1cccc(C2(O)CCN(C(=O)Cc3cccs3)CC2CN(C)C)c1.Cl (stereo not drawn) [FWBE8, 1-(3-((Dimethylamino)methyl)-4-hydroxy-4-(3-methoxyphenyl)piperidin-1-yl)-2-(thiophen-2-yl)ethyl-1-one hydrochloride]
δ opioid receptor; [6]
  inhibition at 1 µM: 18.7 ± 1.9%
μ opioid receptor; Table 5-1
  Ki: 0.0348 ± 0.0011 µM
κ opioid receptor; 0.5 h, Table 5-1, 1 μM concentration of compound, read-out: κOR Combination rate (%)
  inhibition at 1 µM: 32.5 ± 4.4%
Female mice; 10 mg/kg dose
  Maximum percentage effective analgesia (% MPE): 93.0%

## CCCS(=O)(=O)N1CCC(O)(c2cccc(OC)c2)C(CN(C)C)C1.Cl (stereo not drawn) [FWBH19, 3-((Dimethylamino)methyl)-4-(3-methoxyphenyl)-1-(propylsulfonyl)piperidin-4-ol hydrochloride]
δ opioid receptor; [4]
  inhibition at 1 µM: 17.5 ± 4.38%
μ opioid receptor; Table 2-1
  Ki: 0.133 ± 0.0031 µM
κ opioid receptor; [5]
  inhibition at 1 µM: 19.1 ± 10.3%
Female mice; 5 mg/kg dose
  % MPE (5 mg/kg): 17.04%

## COc1cccc(C2(O)CCN(S(=O)(=O)C[C@]34CC[C@H](CC3O)C4(C)C)CC2CN(C)C)c1 (stereo partly drawn) [FWBH27, 3-((Dimethylamino)methyl)-1-((((1S,4R)-2-hydroxy-7,7-dimethylbicyclo[2.2.1]hept-1-yl)methyl)sulfonyl)-4-(3-methoxyphenyl)piperidin-4-ol hydrochloride]
δ opioid receptor; [4]
  inhibition at 1 µM: 24.8 ± 0.77%
μ opioid receptor; Table 2-1
  Ki: 0.0325 ± 0.0033 µM
κ opioid receptor; Table 2-1
  Ki: 0.0277 ± 0.0039 µM
Female mice; 5 mg/kg dose
  % MPE (5 mg/kg): 12.21%

## COc1cccc(C2(O)CCN(S(=O)(=O)c3ccccc3)CC2CN(C)C)c1.Cl (stereo not drawn) [FWBH16, 3-((Dimethylamino)methyl)-4-(3-methoxyphenyl)-1-(phenylsulfonyl)piperidin-4-ol hydrochloride]
δ opioid receptor; [4]
  inhibition at 1 µM: 40.5 ± 1.66%
μ opioid receptor; Table 2-1
  Ki: 0.0877 ± 0.00937 µM
κ opioid receptor; [5]
  inhibition at 1 µM: 32.6 ± 0.55%
Female mice; 5 mg/kg dose
  % MPE (5 mg/kg): 100%

## COc1cccc(C2(O)CCN(S(C)(=O)=O)CC2CN(C)C)c1.Cl (stereo not drawn) [FWBH23, 3-((Dimethylamino)methyl)-4-(3-methoxyphenyl)-1-(methylsulfonyl)piperidin-4-ol hydrochloride]
δ opioid receptor; [4]
  inhibition at 1 µM: 16 ± 1.99%
μ opioid receptor; Table 2-1
  Ki: 0.192 ± 0.015 µM
κ opioid receptor; [5]
  inhibition at 1 µM: 14.3 ± 3.33%
Female mice; 5 mg/kg dose
  % MPE (5 mg/kg): 16.87%

## COc1cccc(C2(O)CCN(S(=O)(=O)Cc3ccc(C(F)(F)F)cc3)CC2CN(C)C)c1.Cl (stereo not drawn) [FWBH17, 3-((Dimethylamino)methyl)-4-(3-methoxyphenyl)-1-((4-(trifluoromethyl)benzyl)sulfonyl) piperidin-4-ol hydrochloride]
δ opioid receptor; [4]
  inhibition at 1 µM: 29.3 ± 1.66%
μ opioid receptor; Table 2-1
  Ki: 0.261 ± 0.0353 µM
κ opioid receptor; [5]
  inhibition at 1 µM: 25.4 ± 5.93%
Female mice; 5 mg/kg dose
  % MPE (5 mg/kg): 48.32%

## COc1cccc(C2(O)CCN(C(=O)NC34CC5CC(CC(O)(C5)C3)C4)CC2CN(C)C)c1.Cl [FWBF16, 3-((dimethylamino)methyl)-4-hydroxy-N-((1R,3S,5R,7S)-3-hydroxyadamantan-1-yl)-4-(3-methoxyphenyl)piperidine-1-carboxamide hydrochloride]
δ opioid receptor; [1]
  inhibition at 1 µM: 1.9%
μ opioid receptor; [2]
  inhibition at 1 µM: 0%
κ opioid receptor; [3]
  inhibition at 1 µM: 0%
Female mice; 10 mg/kg dose
  % MPE @ 10 mg/kg: 16.07%

## C=CCS(=O)(=O)N1CCC(O)(c2cccc(OC)c2)C(CN(C)C)C1.Cl (stereo not drawn) [FWBH21, 1-(Allylsulfonyl)-3-((dimethylamino)methyl)-4-(3-methoxyphenyl)piperidin-4-ol hydrochloride]
δ opioid receptor; [4]
  inhibition at 1 µM: 31.52 ± 0.21%
μ opioid receptor; Table 2-1
  Ki: 0.0404 ± 0.00499 µM
κ opioid receptor; [5]
  inhibition at 1 µM: 17.1%
Female mice; 5 mg/kg dose
  % MPE (5 mg/kg): 18.80%

## COc1cccc(C2(O)CCN(S(=O)(=O)Cc3cccc(Cl)c3)CC2CN(C)C)c1.Cl (stereo not drawn) [FWBH7, 1-((3-Chlorobenzyl)sulfonyl)-3-((dimethylamino)methyl)-4-(3-methoxyphenyl)piperidin-4-ol hydrochloride]
δ opioid receptor; [4]
  inhibition at 1 µM: 28.8 ± 0.04%
μ opioid receptor; Table 2-1, 1 μM concentration of compound, read-out: μOR Binding rate (%)
  inhibition at 1 µM: 21.9 ± 2.4%
κ opioid receptor; [5]
  inhibition at 1 µM: 0%
Female mice; Mus musculus, ip, Table 2-2, hot plate
  ED50: 1.58 mg/kg

## COc1cccc(C2(O)CCN(C(=O)Cc3ccsc3)CC2CN(C)C)c1.Cl (stereo not drawn) [FWBE2, 1-(3-((Dimethylamino)methyl)-4-hydroxy-4-(3-methoxyphenyl)piperidin-1-yl)-2-(thiophen-3-yl)ethyl-1-one hydrochloride]
δ opioid receptor; 0.5 h, read-out: δOR Combination rate (%)
  inhibition at 1 µM: 14.7 ± 0.9%
μ opioid receptor; 0.5 h, read-out: μOR Combination rate (%)
  inhibition at 1 µM: 40.6 ± 0.9%
κ opioid receptor; 0.5 h, read-out: κOR Combination rate (%)
  inhibition at 1 µM: 20.8 ± 1.9%
Female mice; 10 mg/kg dose
  Maximum percentage effective analgesia (% MPE): 42%

## COc1cccc(C2(O)CCN(S(=O)(=O)Cc3ccc(F)cc3)CC2CN(C)C)c1.Cl (stereo not drawn) [FWBH12, 3-((Dimethylamino)methyl)-1-((4-fluorobenzyl)sulfonyl)-4-(3-methoxyphenyl)piperidin-4-ol hydrochloride]
δ opioid receptor; Table 2-1
  Ki: 1.11 ± 0.0285 µM
μ opioid receptor; Table 2-1
  Ki: 0.0392 ± 0.00613 µM
κ opioid receptor; [5]
  inhibition at 1 µM: 45.9 ± 2.11%
Female mice; 5 mg/kg dose
  % MPE (5 mg/kg): 332.92%
